Here are results for one compound from ChEMBL document CHEMBL1128958, “Synthesis and biological activity of the neuronal calcium channel blocker 2-amino-1-(2,5-dimethoxyphenyl)-5-trifluoromethyl benzimidazole (NS-649)” (Bioorg Med Chem Lett, 1996).

Structures are written as SMILES.

One test is filed under the species Mus musculus. Kind of test: Concentration that blocked potassium evoked release of [3H]D-aspartate from mouse cerebellar granule neurons. Type of test: functional.
For another test, the species on record is Cavia porcellus. Kind of test: Effect on [Ca2+]-induced contractions in potassium-depolarized guinea pig taenia coli. In kind it is functional.

Broadly, the IC50 is the concentration that inhibits the measured activity by half. High values mean a need for much substance, low ones inhibition by little substance. Turning to `COc1ccc(OC)c(-n2c(N)nc3cc(C(F)(F)F)ccc32)c1`, the IC50 in the test filed under Mus musculus is approximately 2.4 µM. This compound also returned a Concentration in the test listed under Cavia porcellus of 30 µM.
